Here are results for one compound from patent US9408811B2, “Pharmaceutical composition comprising guttiferone F for the treatment of prostate cancer” (Hong Kong Baptist University, priority 2013, dated 2016).

The test system of one experiment is LNCaP. Put plainly: MTT cytotoxic assay, LNCaP. The experiment is classed as cell-based, human. How it is done: (§1) Two human prostate cancer cell lines LNCaP and PC3 are maintained in RPMI1640 (Sigma Chemical Company, St. Louis, Mo., USA) supplemented with 10% fetal bovine serum (HyClone). Hepatocellular carcinoma cell line Hep G2, epithelial cervical cancer cell line HeLa and nasopharyngeal carcinoma cell line CNE are maintained in DMEM (Invitrogen) supplemented with 10% new-born calf serum (Gibco), 100 U/ml penicillin and 100 μg/ml streptomycin (Invitrogen). All cancer cells are maintained in a humidified atmosphere containing 5% CO2 at 37° C.
(§2) Different cancer cells are seeded in a 96-well plate and pre-incubated for 24 hours before treatment with Guttiferone F (0-50 μM). After 48 h of treatment, 10 μl of MTT solution (5 mg/ml) (Sigma Chemical Company, St. Louis, Mo., USA) are added to each well and incubated for 4 h. The resulting crystals are dissolved in DMSO. The controls include native cells and medium only. The spectrophotometric absorbance at 570 nm is measured using a microplate reader (Synergy HT, Bio-Tek Instruments Inc., Winooski, Vt., USA). The percentage cytotoxicity is calculated by the formula: Percentage cytotoxicity (cell death)=[1-(absorbance of experimental wells/absorbance of control wells)]×100%.

The subject of another experiment is PC-3. Put plainly: MTT cytotoxic assay, PC-3. The experiment is classed as cell-based. The conditions noted are these: Homo sapiens, 48 h of treatment. How it is done: as §1, §2
For the next experiment, the system named is Hep G2. Put plainly: MTT cytotoxic assay, Hep G2. The experiment is classed as cell-based. The conditions noted are these: Homo sapiens, HepG2, 48 h of treatment. Here is the method: as §1, §2
The next experiment has as its system HeLa. Put plainly: MTT cytotoxic assay, HeLa. The experiment is classed as cell-based. The conditions noted are these: Homo sapiens, 48 h of treatment. Here is the method: as §1, §2
Experiment [1] deals with LNCaP cells. Put plainly: Flow cytometry (PI, FACS) sub-G1 apoptosis. The conditions noted are these: 10 μM, serum-free medium, 24 h and 48 h. It counts as cell-based, human. Here is the method:
Based on the result of the above MTT assay on prostate cancer cell lines, LNCaP cells and 10 μM of Guttiferone F are selected for studying the effect of Guittiferone F on apoptosis of human prostate cancer cells. Before that, LNCaP cells are treated with Guttiferone F at the concentration of 10 μM. Cells are trypsinized and fixed in ice-cold 100% methanol overnight at 4° C. Cells are washed, stained with propidium iodide (PI) for overnight, and subjected to fluorescence activated cell sorting (FACS) analysis on a FAC Scan flow cytometer (BD PharMingen, USA). Data are analyzed using the WinMID software.
To detect the apoptosis, sub-G1 phase cells were measured. Such cells are usually considered to be the result of apoptotic DNA fragmentation. The DNA is degraded by cellular endonucleases, during apoptosis. Therefore, nuclei of apoptotic cells contain less DNA than nuclei of healthy G0/G1 cells, resulting in a sub-G1 peak in the fluorescent histogram that may be used to determine the relative amount of apoptotic cells.

Experiment [2] deals with LNCaP cells. Put plainly: Hoechst 33258 / MitoTracker Red confocal microscopy. It counts as cell-based, human. The note with it: treatment for 12 h or 24 h, laser confocal microscopy. Here is the method: Hoechst is depicted as blue in the first column of images while MitoTracker Red is depicted as red in the second column of images; double stain of Hoechst 33258 and MitoTacker Red is shown in the third column of images, in which the dotted square in each image represents the area where the part is enlarged; the corresponding enlarged area of the image from the third column is shown in the fourth column.
LNCaP cells (2×10^5) are seeded on 35 mm culture dish and incubated 24 h to allow attachment. After the different treatment of Guttiferone F for 12 h or 24 h, the medium is removed from the dish and the staining solution (50 μg/ml Hoechst 33258 and 1 ng/ml MitoTracker Red in PBS) is added. The fluorescence of the bound dyes is analyzed using a laser scanning confocal microscope (FV10i, Olympus Corporation, Japan).

Experiment [3] relates to PC3 cells. Put plainly: PC3 xenograft nude mouse model A, intratumoral injection. It counts as in vivo, nude mice. The conditions noted are these: intratumoral injection every two days for 20 days; 20 μM 3 times, then 100 μM; FIG. 4, p<0.05. How it is done:
A total of 1×10^6 PC3 cells suspended in 100 μl of PBS and 100 μl of Matrigel (BD Biosciences, Bedford, Mass.) are inoculated subcutaneously (s.c.) into the right flank of six 4-week-old male nude mice. Drug injections are made once the tumors reach an average volume of about 100 mm^3. Mice are divided randomly into two groups of 3 mice in each group and subjected to intratumoral injection of vehicle (control) or […] Guttiferone F every two days for 20 days. (After 20 μM GF for 3 times, the dosage is increased to 100 μM GF). Tumor volume is measured by calipers and calculated by V=L×W^2/2 at different time intervals. For intratumoral injection, […] Guttiferone F is prepared in 5% dimethyl sulfoxide, 5% tween 80, and 90% PBS.

Experiment [4] concerns PC3 cells. Put plainly: PC3 xenograft nude mouse model B, intraperitoneal injection 10 mg/kg. It counts as in vivo, nude mice. The conditions noted are these: intraperitoneal injection 10 mg/kg every two days for 18 days; FIG. 5. How it is done: A total of 1×10^6 PC3 cells suspended in 100 μl of PBS and 100 μl of Matrigel are inoculated subcutaneously into the right flank of […] 4-week-old male nude mice. Drug injections are made once the tumors reach an average volume of about 200 mm^3. Mice are divided randomly into two groups of 7 for each group and subjected to intraperitoneal injection of vehicle or 10 mg/kg Guttiferone F every two days for 18 days. Tumor volume is measured by calipers and calculated by V=L×W^2/2. For intratumoral injection, Guttiferone F is prepared in 5% dimethyl sulfoxide, 5% tween 80, and 90% PBS.

In experiment [5] the test system is PC3 cells. Put plainly: PC3 xenograft BALB/c nude mice, intraperitoneal GF with or without caloric restriction. The experiment is classed as in vivo. The conditions noted are these: i.p. 20 mg/kg normally fed, or 10 mg/kg with caloric restriction, versus control; FIG. 6, p<0.01. Here is the method:
Four-week-old male BALB/c nude mice from the Experimental Animal Center of Chinese Academy of Science (Shanghai, China) are used in this example. Approximately 1×10^6 PC3 cells suspended in 100 μl of PBS and 100 μl of Matrigel are injected subcutaneously into the right side of the animals. One week later, 28 mice bearing tumors around 50 mm^3 in volume are randomly divided into four groups (n=7 per group): Group 1: Control (normally fed, receiving daily i.p. vehicle), Group 2: Caloric restriction (fed with 70% of their normal food intake, receiving daily i.p. vehicle), Group 3: GF (normally fed, receiving daily i.p. 20 mg/kg of GF), and Group 4: GF+caloric restriction (calorie-restricted mice receiving daily i.p. 10 mg/kg of GF). Mice are administered via intraperitoneal injection of vehicle (control) in a form of solvent (0.5% DMSO, 0.5% Tween-80 in saline) and GF at the dose of 10 mg/kg or 20 mg/kg in 200 μl vehicle once every other day. […] Using the conversion formula between animal dose and human dose taught in Regan-Shaw et al. (2007), the daily human dose of GF through intraperitoneal injection is about 1.62 mg/kg to 2.4 mg/kg (corresponding to 20 mg/kg of GF for mouse); the daily human dose of GF under calorie restriction is at least in a range of 0.81 mg/kg to 1.2 mg/kg (corresponding to 10 mg/kg of GF for mouse).

Consider `C=C(C)[C@H](CC=C(C)C)C[C@@]12C[C@@H](CC=C(C)C)C(C)(C)[C@@](CC=C(C)C)(C(=O)C(C(=O)c3ccc(O)c(O)c3)=C1O)C2=O` [Guttiferone F], for which the half-inhibitory concentration (IC50) in the experiment on LNCaP (Homo sapiens, LNCaP, MTT, 48 h of treatment) was found to be 5.17 ± 0.2 µM; in the experiment on PC-3, 12.6 ± 3.01 µM; with Hep G2, 32.9 ± 1.56 µM; in the experiment on HeLa, 13.1 ± 1.32 µM. The “selectivity between cell lines in MTT assay” value in the experiment with LNCaP (prostate cancer cell lines versus other cell lines, Table 1) is recorded as “more specific to human prostate cancer than the others”. For the same compound, the “apoptosis (sub-G1 phase cells)” value in the experiment with LNCaP cells [1] is listed as “induce LNCaP cell death by apoptosis significantly”. In the experiment with LNCaP cells [2], the “change in mitochondria and nucleus DNA” value is “DNA fragmentation and mitochondria focus are visualized”. For the same compound, the figures for the “tumor growth (tumor volume)” value in the experiment on PC3 cells [3], in the experiment with PC3 cells [4] and in the experiment on PC3 cells [5] were “the growth of tumor is inhibited significantly after 14 days”, “the growth of tumor is not inhibited significantly in 18 days” and “tumor growth is significantly less prominent”, respectively.
